The text below walks through data of ChEMBL document CHEMBL1146671, “Non-peptide alpha v beta 3 antagonists. Part 7: 3-Substituted tetrahydro-naphthyridine derivatives” (Bioorg Med Chem Lett, 2004).

In one data set the target is Integrin alpha-V/beta-3 (Homo sapiens, UniProt P05106+P06756). Description: Displacement of [125I]L-775,219 from human recombinant alphaV-beta3 integrin. The class given is protein-complex assay.
The nature of data set [1]: Hammett constant was determined. The class given is functional.
Data set [2] in a line: Bioavailability in dog. The following applies: in vivo. The class given is ADME, organism-based, Canis lupus familiaris.
Data set [3] in a line: Clearance of compound was determined in dogs. The class given is ADME, organism-based, Canis lupus familiaris. The following applies: dog, in vivo.
The nature of data set [4]: Half-life of compound was determined in dogs. The class given is ADME, organism-based, Canis lupus familiaris. To be noted: dog, in vivo.

Integrin alpha-V/beta-3, sequence (P05106 27-788 limits assumed): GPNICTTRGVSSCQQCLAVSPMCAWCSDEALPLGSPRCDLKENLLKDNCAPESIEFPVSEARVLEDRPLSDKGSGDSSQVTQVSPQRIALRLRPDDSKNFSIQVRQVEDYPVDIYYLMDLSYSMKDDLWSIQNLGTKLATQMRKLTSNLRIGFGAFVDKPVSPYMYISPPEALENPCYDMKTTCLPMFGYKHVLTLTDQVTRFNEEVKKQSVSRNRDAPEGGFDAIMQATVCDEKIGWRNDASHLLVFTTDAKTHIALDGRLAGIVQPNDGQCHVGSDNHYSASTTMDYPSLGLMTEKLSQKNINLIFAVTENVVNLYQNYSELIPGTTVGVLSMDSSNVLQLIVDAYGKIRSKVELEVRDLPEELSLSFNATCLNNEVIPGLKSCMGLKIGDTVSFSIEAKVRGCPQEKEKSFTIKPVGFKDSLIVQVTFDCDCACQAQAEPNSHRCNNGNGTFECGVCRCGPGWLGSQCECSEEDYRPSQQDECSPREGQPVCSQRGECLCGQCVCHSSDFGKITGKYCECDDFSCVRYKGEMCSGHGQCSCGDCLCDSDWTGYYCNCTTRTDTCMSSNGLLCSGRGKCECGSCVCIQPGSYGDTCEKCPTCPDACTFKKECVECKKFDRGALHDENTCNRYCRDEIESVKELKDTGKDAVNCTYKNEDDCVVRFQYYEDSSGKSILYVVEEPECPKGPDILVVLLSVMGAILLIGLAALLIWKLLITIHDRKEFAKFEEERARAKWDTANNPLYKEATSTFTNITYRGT
Integrin alpha-V/beta-3, sequence (P06756 31-889 limits assumed): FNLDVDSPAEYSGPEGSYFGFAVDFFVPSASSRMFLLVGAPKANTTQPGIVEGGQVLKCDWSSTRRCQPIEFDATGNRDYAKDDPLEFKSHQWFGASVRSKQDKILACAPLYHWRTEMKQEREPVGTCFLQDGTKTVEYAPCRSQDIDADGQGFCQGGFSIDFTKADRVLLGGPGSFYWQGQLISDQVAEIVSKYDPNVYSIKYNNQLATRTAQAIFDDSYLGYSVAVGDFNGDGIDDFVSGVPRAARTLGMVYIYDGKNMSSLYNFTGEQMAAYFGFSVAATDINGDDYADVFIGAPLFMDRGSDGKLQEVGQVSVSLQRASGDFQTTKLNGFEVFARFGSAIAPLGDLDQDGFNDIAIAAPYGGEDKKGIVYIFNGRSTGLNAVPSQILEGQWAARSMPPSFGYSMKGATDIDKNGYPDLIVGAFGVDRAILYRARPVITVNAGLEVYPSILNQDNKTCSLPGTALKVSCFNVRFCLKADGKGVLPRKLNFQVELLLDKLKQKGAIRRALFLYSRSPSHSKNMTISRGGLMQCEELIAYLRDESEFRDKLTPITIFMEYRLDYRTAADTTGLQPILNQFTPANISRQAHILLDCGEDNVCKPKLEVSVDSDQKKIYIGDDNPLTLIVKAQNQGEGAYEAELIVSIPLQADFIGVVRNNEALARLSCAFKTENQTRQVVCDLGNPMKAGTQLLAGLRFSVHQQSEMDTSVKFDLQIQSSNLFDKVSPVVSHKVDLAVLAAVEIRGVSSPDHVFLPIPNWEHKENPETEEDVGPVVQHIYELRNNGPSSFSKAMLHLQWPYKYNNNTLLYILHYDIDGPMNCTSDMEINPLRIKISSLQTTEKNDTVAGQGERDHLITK
Integrin alpha-V/beta-3, sequence (P06756 891-1048 limits assumed): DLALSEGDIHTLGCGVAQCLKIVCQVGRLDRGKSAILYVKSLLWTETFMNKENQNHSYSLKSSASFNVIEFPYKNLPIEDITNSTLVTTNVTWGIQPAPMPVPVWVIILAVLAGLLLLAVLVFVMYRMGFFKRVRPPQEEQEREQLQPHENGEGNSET

`COc1ccc([C@H](CC(=O)O)N(C)C(=O)CCCCc2nc3c(cc2Br)CCCN3)cn1`: the half-maximal inhibitory concentration (IC50) (in general, the concentration at which inhibition is half-maximal) on Integrin alpha-V/beta-3 stood at 2.3 nM. In data set [1], the Sigmap is 0.26.

For `COc1ccc([C@H](CC(=O)O)N(C)C(=O)CCCCc2nc3c(cc2N)CCCN3)cn1`, at Integrin alpha-V/beta-3, the IC50 was 0.4 nM. The compound further registered a Sigmap in data set [1] of -0.3.

On to `COc1ccc([C@H](CC(=O)O)N(C)C(=O)CCCCc2nc3c(cc2[N+](=O)[O-])CCCN3)cn1`, for which the concentration for half-maximal inhibition (IC50) on Integrin alpha-V/beta-3 was 36.7 nM. In data set [1], this compound yielded a Sigmap of 0.81.

For the compound `COc1ccc([C@H](CC(=O)O)N(C)C(=O)CCCCc2nc3c(cc2-c2ccccc2)CCCN3)cn1`, the half-inhibitory concentration (IC50) on Integrin alpha-V/beta-3 worked out at 0.9 nM. In addition, in data set [1], the Sigmap is 0.05.

For the compound `COc1ccc([C@H](CC(=O)O)N(C)C(=O)CCCCc2nc3c(cc2C#N)CCCN3)cn1`, the 50% inhibitory concentration (IC50) on Integrin alpha-V/beta-3 worked out at 16.5 nM. Also, the Sigmap in data set [1] is 0.71.

Turning to `C=Cc1cc2c(nc1CCCCC(=O)N(C)[C@@H](CC(=O)O)c1ccc(OC)nc1)NCCC2`, the IC50 on Integrin alpha-V/beta-3 turned out to be 0.3 nM. Further, the Sigmap in data set [1] was -0.14.

For `COc1ccc([C@H](CC(=O)O)N(C)C(=O)CCCCc2nc3c(cc2NS(C)(=O)=O)CCCN3)cn1`, the half-maximal inhibitory concentration (IC50) on Integrin alpha-V/beta-3 came to 0.9 nM. In data set [1], this compound registered a Sigmap of 0.03.

For the compound `COc1ccc([C@H](CC(=O)O)N(C)C(=O)CCCCc2nc3c(cc2C)CCCN3)cn1`, in data set [2], the bioavailability – broadly, the share of a dose that reaches the circulation, judged against a reference dose that is usually intravenous – stood at 65%. Also, in data set [3], the clearance (usually the rate of elimination divided by the concentration) is 2.4 mL/min/kg. Also, the half-life (as a rule, the time needed for the level to fall by half in the phase considered) in data set [4] was 4.9 h. Besides, the IC50 on Integrin alpha-V/beta-3 came to 0.3 nM. Besides, the Sigmap in data set [1] was -0.14.

With `COc1ccc([C@H](CC(=O)O)N(C)C(=O)CCCCc2nc3c(cc2NC(C)=O)CCCN3)cn1`, on Integrin alpha-V/beta-3, the IC50 was 0.6 nM. The compound also gave a Sigmap in data set [1] of 0.

In data set [2], `COc1ccc([C@H](CC(=O)O)N(C)C(=O)CCCCc2ccc3c(n2)NCCC3)cn1` registered a bioavailability of 76%. The half-life in data set [4] is 5.8 h. Further, the IC50 at Integrin alpha-V/beta-3 came out at 0.7 nM. Besides, the Sigmap in data set [1] stood at 0.
